Measured values taken from the NIST ThermoML archive (doi:10.1016/j.jct.2016.03.012).
Numbers after ± are expanded uncertainties.

Experiment: wn = mass fraction of the nth substance listed
Conditions: 101 kPa, Liquid; for viscosity: Capillary tube (Ostwald / Ubbelohde) method; for speed of sound: Frequency=3 MHz, Linear variable-path acoustic interferometer; for mass density: Pycnometric method

Q: For O=C[C@@H](O)[C@@H](O)[C@H](O)[C@H](O)CO [D-mannose] + O, which viscosity (293.15 K, w1 = 0.025) is on record?
A: 1.074 ± 0.025 mPa·s

Q: What about the viscosity (293.15 K, w1 = 0.05) of the same compound?
A: 1.146 ± 0.026 mPa·s

Q: And the speed of sound (293.15 K, w1 = 0.025)?
A: 1495.7 ± 3.4 m/s

Q: What about the speed of sound (293.15 K, w1 = 0.05) of the same compound?
A: 1508.3 ± 3.4 m/s

Q: What about the mass density (293.15 K, w1 = 0.05) of the same compound?
A: 1017.15 ± 1.3 kg/m3

Q: And the viscosity (298.15 K, w1 = 0.025)?
A: 0.9514 ± 0.022 mPa·s

Q: What about the viscosity (298.15 K, w1 = 0.05) of the same compound?
A: 1.007 ± 0.023 mPa·s

Q: What about the speed of sound (298.15 K, w1 = 0.025) of the same compound?
A: 1506.6 ± 3.4 m/s

Q: What about the speed of sound (298.15 K, w1 = 0.05) of the same compound?
A: 1516.6 ± 3.4 m/s

Q: And the mass density (298.15 K, w1 = 0.05)?
A: 1016.04 ± 1.3 kg/m3

Q: And the viscosity (303.15 K, w1 = 0.025)?
A: 0.8479 ± 0.019 mPa·s

Q: What about the viscosity (303.15 K, w1 = 0.05) of the same compound?
A: 0.8925 ± 0.021 mPa·s

Q: What about the speed of sound (303.15 K, w1 = 0.025) of the same compound?
A: 1516.9 ± 3.4 m/s

Q: What about the speed of sound (303.15 K, w1 = 0.05) of the same compound?
A: 1525.2 ± 3.4 m/s

Q: And the mass density (303.15 K, w1 = 0.025)?
A: 1005.29 ± 1.3 kg/m3

Q: And the mass density (303.15 K, w1 = 0.05)?
A: 1014.73 ± 1.3 kg/m3

Q: And the viscosity (308.15 K, w1 = 0.025)?
A: 0.7636 ± 0.017 mPa·s

Q: And the viscosity (308.15 K, w1 = 0.05)?
A: 0.8017 ± 0.018 mPa·s

Q: What about the speed of sound (308.15 K, w1 = 0.025) of the same compound?
A: 1526.9 ± 3.4 m/s

Q: And the speed of sound (308.15 K, w1 = 0.05)?
A: 1534.1 ± 3.4 m/s

Q: What about the mass density (308.15 K, w1 = 0.025) of the same compound?
A: 1003.71 ± 1.3 kg/m3

Q: And the mass density (308.15 K, w1 = 0.05)?
A: 1013.21 ± 1.3 kg/m3

Q: What about the viscosity (313.15 K, w1 = 0.025) of the same compound?
A: 0.6922 ± 0.016 mPa·s

Q: What about the viscosity (313.15 K, w1 = 0.05) of the same compound?
A: 0.7265 ± 0.017 mPa·s

Q: What about the speed of sound (313.15 K, w1 = 0.025) of the same compound?
A: 1535.2 ± 3.4 m/s

Q: And the speed of sound (313.15 K, w1 = 0.05)?
A: 1542.6 ± 3.4 m/s

Q: What about the mass density (313.15 K, w1 = 0.025) of the same compound?
A: 1001.93 ± 1.3 kg/m3

Q: And the mass density (313.15 K, w1 = 0.05)?
A: 1011.5 ± 1.3 kg/m3

Q: And the viscosity (318.15 K, w1 = 0.025)?
A: 0.6347 ± 0.015 mPa·s

Q: And the viscosity (318.15 K, w1 = 0.05)?
A: 0.6654 ± 0.015 mPa·s

Q: What about the speed of sound (318.15 K, w1 = 0.025) of the same compound?
A: 1543 ± 3.4 m/s

Q: And the speed of sound (318.15 K, w1 = 0.05)?
A: 1551 ± 3.4 m/s

Q: What about the mass density (318.15 K, w1 = 0.025) of the same compound?
A: 999.95 ± 1.3 kg/m3

Q: And the mass density (318.15 K, w1 = 0.05)?
A: 1009.58 ± 1.3 kg/m3
